# In PMC8733726, “Dioctanoyl Ultrashort Tetrabasic β-Peptides Sensitize Multidrug-Resistant Gram-Negative Bacteria to Novobiocin and Rifampicin” (Frontiers in Microbiology, 2021):
# Read-outs that look alike come from different tables or passages of the source.
# How the values were obtained:
# A. baumannii ATCC 17978 [1] = type: cell-based, Acinetobacter baumannii; details: not told
# Procedure: (§1) The ability of dUSTBβP 3 to permeabilize the OM of Acinetobacter baumannii ATCC 17978 and Escherichia coli ATCC 25922 was assessed using 1-N-phenylnaphthylamine (NPN) as previously described with minor modifications ([Yang et al., 2017]; [Akhoundsadegh et al., 2019]). Overnight grown culture was subcultured (1 in 100) in fresh LB broth and grown to a mid-logarithmic phase (OD600 = 0.4–0.6). […] NPN (10 μM final concentration) was added to a black 96-well plate containing the cell culture and incubated in 5 mM HEPES (pH 7.2) supplemented with 5 mM glucose and 5 μM carbonyl cyanide 3-chlorophenylhydrazone at room temperature for 30 min in darkness. Varying concentrations of compound were added onto the suspension, and the resulting change in NPN fluorescence was measured continuously (every 30 s) on a SpectraMax M2 microplate reader (Molecular Devices, United States) at an excitation wavelength of 350 nm and an emission wavelength of 420 nm. Cells with NPN and the OM permeabilizer PMBN served as a positive control, while cells with NPN alone served as a negative control. Three replicates were conducted, and the data were corrected for any background fluorescence.
# P. aeruginosa PAO1 = type: cell-based, Pseudomonas aeruginosa; details: PAO1, 18 h
# Procedure: (§2) The in vitro antibacterial activities of dUSTBβPs were evaluated using microbroth dilution susceptibility test, in accordance with the Clinical and Laboratory Standards Institute (CLSI) guidelines ([Clinical and Laboratory Standards Institute, 2019]). Overnight-grown bacterial culture diluted in saline to 0.5 McFarland turbidity was successively diluted 1:50 in Mueller-Hinton broth (MHB) to achieve a final concentration of 5 × 10^5 colony forming units (CFU)/mL for inoculation. The agents were serially diluted 2-fold in MHB on a 96-well plate; mixed with bacterial inoculum of equal volumes, and incubated at 37°C for 18 h. Antibacterial activity was determined by the minimum inhibitory concentration (MIC), which is the lowest concentration of agent required for inhibition of visible bacterial growth in the form of turbidity. Confirmation of turbidity was done using an EMax Plus microplate reader (Molecular Devices, United States) at a wavelength of 590 nm. Wells comprising MHB alone or MHB inoculated with bacteria were used as negative or positive controls, respectively.
# Cell viability assay = type: cell-based; details: human
# Procedure: (§3) Cell viability assay was performed essentially as previously described ([[…] et al., 2019]). […] The cells were detached with trypsin and equal numbers of cells (8,000 cells in 50 μL) were dispersed into five rows of each column in 96-well plate; the remaining three rows of each column, designated as blanks, received 50 μL of the media without cells. After 24 h incubation, aliquots of 50 μL of dUSTBβP 3 at varying concentrations were added to each well and incubated for 48 h. […] Values from the wells without cells (blank wells) were subtracted from the corresponding sample wells and cell viability values of the treated samples relative to the vehicle controls set to 100% was determined. […] The results represent the mean ± SD of two independent experiments with five samples per experiment. […] Colistin was used as a negative control and doxorubicin, an anticancer drug, was used as a positive control.
# [2] = tested on: MDR clinical isolates of A. baumannii; type: cell-based, Acinetobacter baumannii; details: for MICantibiotic: antibiotic alone
# Procedure: (§4) The adjuvant activities of dUSTBβPs were evaluated using checkerboard assay as previously described ([Berry et al., 2019]). Overnight-grown bacterial culture diluted in saline to 0.5 McFarland turbidity was successively diluted 1:50 in MHB to achieve a final concentration of 5 × 10^5 CFU/mL for inoculation. The antibiotic and adjuvant were serially diluted 2-fold along the x-axis and y-axis, respectively, resulting in varying concentrations of both agents in each well. Subsequently, the 96-well plate was incubated with equal volumes of bacterial inoculum at 37°C for 18 h. Confirmation of turbidity was done using an EMax Plus microplate reader (Molecular Devices, United States) at a wavelength of 590 nm. Wells comprising MHB alone or in the presence of bacterial cells were used as negative or positive controls, respectively. Fractional inhibitory concentration index (FICI) is determined by adding the FICs of both antibiotic and adjuvant. The FIC of the antibiotic is calculated by dividing the MIC of the antibiotic in the presence of the adjuvant by the MIC of the antibiotic alone. Similarly, the FIC of the adjuvant is calculated by dividing the MIC of the adjuvant in the presence of the antibiotic by the MIC of the adjuvant alone. FICI ≤ 0.5, 0.5 < x ≤ 4, and >4 were deemed synergistic, additive, and antagonistic, respectively ([Meletiadis et al., 2010]).
# [3] = tested on: wild-type E. coli ATCC 25922; assay: microbe, parasite or virus in culture; type: cell-based, Escherichia coli
# Summary of the method: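 Overnight cultures were adjusted to 0.5 McFarland, then diluted to 5 × 10^5 CFU/mL in MHB. They were added to crossed 2-fold dilutions of antibiotic and adjuvant and incubated 18 h at 37°C. MICs came from OD590, and an FICI ≤ 0.5 was taken as synergy.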
# in vitro [4] = details: human, plasma
# Procedure: Stability of dUSTBβP 3 was evaluated in human plasma. […] The supernatant was analyzed by HPLC-tandem mass spectrometry using selected reaction monitoring. The % compound remaining was determined by comparing peak areas at different time points to time zero. Assuming first-order kinetics, the half-life was extrapolated from the slope of the initial linear range of the logarithmic curve of compound remaining over time. Experiments were performed in duplicates, and the reference compounds include propantheline and propoxycaine.
# in vitro [5] = type: cell-based; details: human
# Procedure: as §3
# A. baumannii ATCC 17978 [6] = type: cell-based, Acinetobacter baumannii; details: ATCC 17978, 18 h
# Procedure: as §2
# in vitro [7] = type: cell-based; details: human; remark: listed apart in the source
# Procedure: The degree of hemolysis induced by dUSTBβPs was determined by the amount of hemoglobin released from human erythrocytes upon incubation. Fresh human blood supplied by a commercial vendor was obtained from normal healthy volunteers following informed consent. The agent of interest was serially diluted in vehicle consisting of phosphate-buffered saline (PBS), saline, 5% glucose, or equivalents. The samples were incubated with gentle mixing at 37°C for 45 min and were subsequently centrifuged. The supernatant (plasma layer) was removed and centrifuged once more to completely pellet the cells. The plasma layer was diluted with Drabkin’s reagent and analyzed at a wavelength of 540 nm. Experiments were conducted in triplicates, and a calibration curve prepared by diluting blood (after addition of vehicle) was used to quantitate heme release. The vehicle or Triton X-100 were used as negative or positive controls, respectively.
# E. coli ATCC 25922 [8] = type: cell-based, Escherichia coli; details: not told
# Procedure: as §1
# E. coli ATCC 25922 [9] = type: cell-based, Escherichia coli; details: ATCC 25922, 18 h
# Procedure: as §2
# MDR K. pneumoniae = type: cell-based, Klebsiella pneumoniae; details: for MICantibiotic: antibiotic alone
# Procedure: as §4
# [10] = tested on: wild-type A. baumannii ATCC 17978; assay: Checkerboard assay; type: cell-based, Acinetobacter baumannii; details: ATCC 17978
# Summary of the method: (§5)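 Checkerboard in MHB with 5 × 10^5 CFU/mL inoculum, antibiotic and adjuvant each serially 2-fold diluted on crossed axes. Growth read as turbidity at 590 nm; FICI is the sum of each agent's MIC in combination divided by its MIC alone.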
# MDR E. coli = type: cell-based, Escherichia coli; details: antibiotic alone
# Procedure: as §4
# [11] = tested on: MDR clinical isolates of P. aeruginosa; assay: Checkerboard assay, MDR clinical isolates; type: cell-based, Pseudomonas aeruginosa; details: antibiotic alone
# Procedure: as §4
# [12] = tested on: wild-type P. aeruginosa PAO1; assay: microbe, parasite or virus in culture; type: cell-based, Pseudomonas aeruginosa; details: PAO1
# Summary of the method: as §5
# [13] = tested on: wild-type A. baumannii ATCC 17978; assay: Time-kill assay; type: cell-based, Acinetobacter baumannii; details: 32 μg/mL novobiocin or 0.5 μg/mL rifampicin alone
# Procedure: (§6) Overnight-grown bacterial culture diluted in PBS to 0.5 McFarland turbidity was successively diluted 1:50 in lysogeny broth (LB). Cell cultures in the presence of dUSTBβP 3, novobiocin, or rifampicin, or combinations of adjuvant and antibiotic were incubated at 37°C. At designated intervals, 100 μL aliquots acquired from each culture tube were serially diluted in PBS and plated on LB agar plates.
# MDR A. baumannii 110193 = assay: Time-kill assay; type: cell-based, Acinetobacter baumannii; details: 32 μg/mL novobiocin or 0.5 μg/mL rifampicin alone
# Procedure: as §6
# MDR E. cloacae = assay: Checkerboard assay, MDR clinical isolates; type: cell-based, Enterobacter cloacae; details: antibiotic alone
# Procedure: as §4
# [14] = ref Chen and Lu, 2020; cited from earlier work
# [15] = antibiotic with dUSTBβP 3 at 8 μg/mL
compound,measurement,setting,value
CCCCCCCC(=O)NC(CCCNC(=N)N)CC(=O)NCCCN(CCCNC(=O)CC(CCCNC(=N)N)NC(=O)CCCCCCC)CC(=O)NC(CCCNC(=N)N)CC(N)=O (centres unmarked) [dUSTBβP 3],"OM permeabilization, NPN fluorescence",A. baumannii ATCC 17978 [1],dose-dependently permeabilizes the OM
same,MIC,P. aeruginosa PAO1,128 µg/mL
same,CC50 at 48 h,Cell viability assay,101 µM
same,MIC of compound alone,"[2]; MDR clinical isolates of, 18 h",16 µg/mL
same,FICI,"[3]; ATCC 25922, 18 h",0.064
same,half-life at 1 μM,in vitro [4],10.4 ± 3.7 h
same,"remaining at 2 h, 1 μM",in vitro [4],86.8 ± 3.7%
same,"viability at 48 h, 125 µM",in vitro [5],86.4 ± 8.7%
same,MIC,A. baumannii ATCC 17978 [6],>128 µg/mL
same,"hemolysis at 45 min, 1.5625 µM",in vitro [7],3.23 ± 0.08%
same,"hemolysis at 45 min, 3.125 µM",in vitro [7],3.32 ± 0.16%
same,"hemolysis at 45 min, 6.25 µM",in vitro [7],3.18 ± 0.05%
same,"hemolysis at 45 min, 12.5 µM",in vitro [7],3.28 ± 0.12%
same,"hemolysis at 45 min, 25 µM",in vitro [7],3.35 ± 0.09%
same,"hemolysis at 45 min, 50 µM",in vitro [7],3.43 ± 0.49%
same,"hemolysis at 45 min, 100 µM",in vitro [7],4.17 ± 1.29%
same,"hemolysis at 45 min, 200 µM",in vitro [7],4.59 ± 2.42%
same,"OM permeabilization, NPN fluorescence",E. coli ATCC 25922 [8],dose-dependently permeabilizes the OM
same,MIC,E. coli ATCC 25922 [9],128 µg/mL
same,FICI,"MDR K. pneumoniae; MDR, 18 h",< 0.156
polymyxin B nonapeptide [PMBN],"OM permeabilization, NPN fluorescence",A. baumannii ATCC 17978 [1],increased fluorescence of NPN
same,"OM permeabilization, NPN fluorescence",E. coli ATCC 25922 [8],increased fluorescence of NPN
CO[C@H]1/C=C/O[C@@]2(C)Oc3c(C)c(O)c4c(O)c(c(/C=N/N5CCN(C)CC5)c(O)c4c3C2=O)NC(=O)/C(C)=C\C=C\[C@H](C)[C@H](O)[C@@H](C)[C@@H](O)[C@@H](C)[C@H](OC(C)=O)[C@@H]1C [Rifampicin],MICantibiotic,[10]; antibiotic alone,2 µg/mL
same,MICcombo,[10]; [15],0.008 µg/mL
same,MIC,"[10]; Acinetobacter baumannii, ATCC17978, 18 h, antibiotic alone (Supplementary Table 7), read-out: MICantibiotic",2 µg/mL
same,MICantibiotic,[2]; 92247,2 µg/mL
same,MICantibiotic,[2]; 110193,1 µg/mL
same,MICantibiotic,[2]; AB027,1 µg/mL
same,MICantibiotic,[2]; AB031,1 µg/mL
same,MICantibiotic,[2]; LAC-4,0.5 µg/mL
same,MICantibiotic,MDR E. coli; 94393,8 µg/mL
same,MICantibiotic,MDR E. coli; 94474,8 µg/mL
same,MICantibiotic,MDR E. coli; 107115,32 µg/mL
same,MICantibiotic,[11]; PA259-96196,16 µg/mL
same,MICantibiotic,[11]; PA262-101856,512 µg/mL
same,MICantibiotic,[11]; PA264-104354,16 µg/mL
same,MICantibiotic,[11]; PA91433,16 µg/mL
same,MICantibiotic,[11]; PA114228,16 µg/mL
same,MICantibiotic,"[3]; ATCC 25922, antibiotic alone",4 µg/mL
same,MICcombo,"[3]; ATCC 25922, antibiotic with dUSTBβP 3 at 8 μg/mL",0.008 µg/mL
same,MIC,"[3]; Escherichia coli, ATCC25922, 18 h, ATCC 25922, antibiotic alone (Supplementary Table 7), read-out: MICantibiotic",4 µg/mL
same,MICantibiotic,[12]; antibiotic alone,16 µg/mL
same,MICcombo,[12]; [15],0.25 µg/mL
same,MIC,"[12]; Pseudomonas aeruginosa, 18 h, antibiotic alone (Supplementary Table 7), read-out: MICantibiotic",16 µg/mL
same,Time-kill outcome,[13],Bacteriostatic
same,Time-kill outcome,MDR A. baumannii 110193,Bacteriostatic
same,MICantibiotic,MDR E. cloacae; 117029,8 µg/mL
same,MICantibiotic,MDR E. cloacae; 118564,8 µg/mL
same,MICantibiotic,MDR E. cloacae; 121187,2 µg/mL
same,MICantibiotic,MDR K. pneumoniae; 113250,32 µg/mL
same,MICantibiotic,MDR K. pneumoniae; 113254,8 µg/mL
same,MICantibiotic,MDR K. pneumoniae; 116381,> 256 µg/mL
same,MICantibiotic,"MDR K. pneumoniae; 116381, listed as rifampicin",512 µg/mL
COc1cccc2c1C(=O)c1c(O)c3c(c(O)c1C2=O)C[C@@](O)(C(=O)CO)C[C@@H]3O[C@H]1C[C@H](N)[C@H](O)[C@H](C)O1 [doxorubicin],CC50 at 48 h,Cell viability assay,0.032 µM
same,"viability at 48 h, 1 µM",in vitro [5],16.6 ± 2.3%
CCCCCCCCCCNCCN[C@@]1(C)C[C@H](O[C@H]2[C@H](Oc3c4cc5cc3Oc3ccc(cc3Cl)[C@@H](O)[C@@H](NC(=O)[C@@H](CC(C)C)NC)C(=O)N[C@@H](CC(N)=O)C(=O)N[C@H]5C(=O)N[C@H]3C(=O)N[C@H](C(=O)N[C@H](C(=O)O)c5cc(O)c(CNCP(=O)(O)O)c(O)c5-c5cc3ccc5O)[C@H](O)c3ccc(c(Cl)c3)O4)O[C@H](CO)[C@@H](O)[C@@H]2O)O[C@@H](C)[C@H]1O [telavancin],In vivo elimination half-life,[14],8 h
